{
  "source": "patent US20250009743A1",
  "about": "“METHODS OF TREATING CANCERS USING STING AGONISTS” (Dana-Farber Cancer Institute, Inc., priority 2021, published 2025)",
  "key": {"DF86 PDX": {"tested_on": "DF86 PDX", "assay": "DF86 ovarian PDX with human bone marrow monocytes in NSG mice", "format": "in vivo", "description": "For the PDX in vivo experiments, about 3×10^6 PDX tumor cells were mixed with 3×10^6 human bone marrow mononuclear cells in serum-free DMEM/F12 medium containing 50% Matrigel (CAT #70001, […] Technology) and intraperitoneally transplanted into NOD/SCID IL2Rgnull mice (NSG, The Jackson Laboratory). About three weeks after injection, PDX-bearing mice were equivalently divided into 4 groups according to the luminescent intensity and treated with vehicle control, olaparib, MSA-2 and olaparib in combination with MSA-2 using the same dosing and schedule that have been described above. Ascites was harvested for analysis after three weeks' treatment.\nTumors were chopped and digested in collagenase buffer as described previously (Ding et al., 2018 Cell Rep 25, 2972-2980.e2975). Single cell suspensions of tumor and ascites were obtained by filtering through 70 um strainers and treated with 1× eBioscience RBC lysis buffer (Thermo Fisher) before staining. Single cells suspensions were incubated with LIVE/DEAD Fixable Aqua Dead Cell Stain (Life Technologies, Cat #L34965) for 30 min and then blocked with anti-CD16/32 (Biolegend, clone 93) for 20 min on ice. Samples were then incubated with appropriate antibodies for 30 min on ice. Foxp3 staining buffer set (eBioscience, Cat #00-5523-00) was applied for intracellular markers staining. For the intracellular cytokine analysis, cells were stimulated with Leukocyte Activation Cocktail (BD Biosciences, Cat #550583) at 37° C. for 4-6 hours prior to FACS staining. The following antibodies were used in this study: antibodies were purchased from BioLegend unless otherwise indicated: CD45 (clone 30-F11), CD3ε (clone 145-2C11), CD4 (clone RM4-5), CD8 (clone 53-6.7), CD44 (clone IM7), CD62L (MEL-14), CD25 (PC61), IFNγ (clone XMG1.2), TNFα (clone MP6-XT22), CD11b (clone M1/70), CD11c […], F4/80 (clone BM8), Ly-6C (clone HK1.4), Ly-6G (clone 1A8), MHC-II (clone M5/114.15.2), CD80 (clone 16-10A1), CD86 (clone GL-1), MHC-I (clone KH114), FoxP3 (clone FJK-16 s; eBioscience), Phospho-IRF-3 (Ser396) (clone D601M, Cell signaling technology) and Phospho-TBK1/NAK (Ser172) (clone D52C2, Cell signaling technology). The following human antibodies were used in this study: cell surface markers includes CD45 (clone H130), CD11b (clone M1/70), CD11c (clone Bu15), CD80 (clone 2D10), CD86 (clone IT2.2), CD14 (clone 63D3), CD15 […], HLA-DR (clone L243) and HLA-A,B,C (clone W6/32); intracellular markers include CD163 (clone GHI/61), CD68 (clone Y1/82A) and CD206 (clone 15-2). Flow cytometry was performed on an LSRII (BD Biosciences) or Fortessa HTS (BD Biosciences) at DFCI Flow Cytometry Core, and all the data were analyzed using FlowJo software."}, "[1]": {"tested_on": "ID8-Brca1^−/− tumor cells in WT and STING^−/− mice", "assay": "Macrophages and myeloid DCs in WT and STING^−/− mice injected with ID8-Brca1^−/− tumor cells", "format": "in vivo, mouse", "details": "24 h treatment; FIG. 21K, FIG. 22D", "method": "Tumors were chopped and digested in collagenase buffer as described previously (Ding et al., 2018 Cell Rep 25, 2972-2980.e2975). Single cell suspensions of tumor and ascites were obtained by filtering through 70 um strainers and treated with 1× eBioscience RBC lysis buffer (Thermo Fisher) before staining. Single cells suspensions were incubated with LIVE/DEAD Fixable Aqua Dead Cell Stain (Life Technologies, Cat #L34965) for 30 min and then blocked with anti-CD16/32 (Biolegend, clone 93) for 20 min on ice. Samples were then incubated with appropriate antibodies for 30 min on ice. Foxp3 staining buffer set (eBioscience, Cat #00-5523-00) was applied for intracellular markers staining. For the intracellular cytokine analysis, cells were stimulated with Leukocyte Activation Cocktail (BD Biosciences, Cat #550583) at 37° C. for 4-6 hours prior to FACS staining. […] Flow cytometry was performed on an LSRII (BD Biosciences) or Fortessa HTS (BD Biosciences) at DFCI Flow Cytometry Core, and all the data were analyzed using FlowJo software."}, "[2]": {"tested_on": "ovarian PDXs DF86, DF101, DF118 and DF149", "assay": "p-STAT3 (Y705) in PARPi-resistant ovarian PDX cells", "format": "cell-based, human", "details": "5 μM olaparib for 24 hours; FIG. 25B", "description": "UWB1.289 and UWB1.289+BRCA1 were purchased from ATCC and cultured in epithelial complete growth medium (50% ATCC-formulated RPMI-1640 medium, 50% MEGM medium and 3% fetal bovine serum) as described previously (Ding et al., 2018, Cell Rep 25, 2972-2980.e2975). ID8-Brca^+/+ and ID8-Brca^−/− cells were previously generated by CRISPR-Cas9 technology. The ovarian cancer patient-derived tumor xenografts (PDX) were established at Dana-Farber Cancer Institute by intraperitoneally implanting tumor cells that isolated from patients' ascites into irradiated nude mice (Liu et al., 2017; Clinical cancer research: an official journal of the American Association for Cancer Research 23, 1263-1273). The established PDX models were maintained by intraperitoneally transplantation in NOD/SCID IL2Rgnull mice (NSG, The Jackson Laboratory). The ovarian PDX cells could be cultured in the epithelial complete growth medium for about 3 to 4 days for in vitro experiments.\nAnalysis of p-STAT3 and γ-H2AX (p-HA2X-Ser139) was performed according to a two-step protocol for intracellular phosphorylated signaling proteins (Thermo Fisher). Briefly, cells were incubated with LIVE/DEAD Fixable Aqua Dead Cell Stain for 30 min. […]"}, "[3]": {"tested_on": "STAT3 phosphorylation in PBM tumor cells", "assay": "p-STAT3 (Y705) in PBM tumor cells (flow cytometry, Western blot)", "format": "cell-based, mouse", "details": "PARPi-naïve PBM cells, 24 hours; FIGS. 19D and 20B", "method": "Analysis of p-STAT3 and γ-H2AX (p-HA2X-Ser139) was performed according to a two-step protocol for intracellular phosphorylated signaling proteins (Thermo Fisher). Briefly, cells were incubated with LIVE/DEAD Fixable Aqua Dead Cell Stain for 30 min. After washing, cells were suspended in 100 μl PBS and then fixed by adding an equal volume of IC Fixation Buffer (CAT #00-822-49, Thermo Fisher) directly to cells and incubated at room temperature for 20 min followed by fixing with ice-cold 90% methanol in PBS for 30 min. The fixed cells were blocked and stained with p-STAT3 or γ-H2AX antibodies for flow cytometry analysis as described above.\nTumor cells were harvested and lysed with ice-cold RIPA buffer supplemented with protease phosphatase inhibitor cocktail (Thermo Fisher). Protein concentration was determined using a Pierce BCA Protein Assay Kit (Thermo Fisher). About 50 μg protein extracts were loaded and separated by SDS-PAGE, and then transferred to polyvinylidene fluoride (PVDF) membranes. After blocking with 5% non-fat milk (Bio-Rad) in PBST (PBS plus 0.2% Tween 20) at room temperature for 1 hr, membranes were incubated with primary antibodies overnight at 4° C."}, "PBM-R tumor cells": {"tested_on": "PBM-R tumor cells", "assay": "Measurement of IC50 value in PBM-R tumor cells (CellTiter-Glo)", "format": "cell-based, mouse", "method": "Tumor cells were seeded in 96-well plates at a density of 2000-3000/well and allowed to adhere overnight. Cells were then exposed to appropriate concentrations of therapeutic agents (or vehicle control) with continuous exposure for 72 h. Growth inhibition was measured by CellTiter-Glo® 2.0 Cell Viability Assay from Promega according to manufactory's introduction. IC50 values were calculated using non-linear regression model (logarithmic inhibitor vs. normalized response-variable slope) in Graphpad Prism 9."}},
  "data": [
    {"smiles": "COc1cc2cc(C(=O)CCC(=O)O)sc2cc1OC", "note": "[MSA-2]", "values": [
      {"measurement": "proportion of TAMs in ascites", "setting": "DF86 PDX; FIG. 25H", "value": "decreased proportion of TAMs"},
      {"measurement": "M1/M2 ratio in ascites", "setting": "DF86 PDX; FIG. 25I", "value": "increased M1/M2 ratio"},
      {"measurement": "CD14^+ myeloid DCs (CD14^+HLA-DR^+)", "setting": "DF86 PDX; FIG. 25J", "value": "significantly increased"},
      {"measurement": "tumor burden (fold change of intensity of luciferase signal)", "setting": "DF86 PDX; compared to control or olaparib treated mice, FIG. 25G", "value": "significantly decreased"},
      {"measurement": "myeloid DC activation and TAM repolarization in WT mice", "setting": "[1]", "value": "successfully activated myeloid DCs and repolarized M2-like TAM to M1-like status"}
    ]},
    {"smiles": "O=C(c1cc(Cc2n[nH]c(=O)c3ccccc23)ccc1F)N1CCN(C(=O)C2CC2)CC1", "note": "[olaparib]", "values": [
      {"measurement": "PDX cells with increased phosphorylation level STAT3", "setting": "[2]", "value": "3 out of 4"},
      {"measurement": "phosphorylation of STAT3", "setting": "[3]", "value": "increased phosphorylation levels of STAT3 in cultured PBM cells in a dose-dependent manner"},
      {"measurement": "IC50 values of 11 out of 12 PBM-R tumor lines", "setting": "PBM-R tumor cells; 11 out of 12 PBM-R lines sensitive in vitro, FIG. 15C", "value": "comparable to PBM tumor cells"},
      {"measurement": "IC50", "setting": "PBM-R tumor cells; Mus musculus, PBM-R3 tumor cells, 72 h, FIG. 15C", "value": 4.19, "unit": "µM"},
      {"measurement": "IC50 fold", "setting": "PBM-R tumor cells; PBM-R3 IC50 relative to 0.56 μM", "value": 7.48, "unit": "folds"}
    ]}
  ]
}
